Test results: patent US8178506B2, “Oligomeric compounds and compositions for use in modulation of small non-coding RNAs” (Regulus Therapeutics Inc., priority 2003, dated 2012)
In the oligonucleotide strings, read from the 5' end, every base follows the letter of its sugar. An asterisk marks phosphorothioate; unmarked linkages are phosphodiester. Other units and linkages are bracketed, terminal groups are in braces. A string of capitals states the bases alone. e = 2'-O-(2-methoxyethyl) (MOE); [5mC] = 5-methylcytosine

Legend:
follistatin = assay: Follistatin mRNA expression in HepG2 cells; type: cell-based, human; conditions: for Follistatin mRNA expression: Experiment 2, insulin treated: HepG2 cells transfected with oligomeric compound, 1 nM insulin for four hours, UTC + 1 nM insulin = 100; for Follistatin mRNA: HepG2 cells, Experiment 1, basal (no insulin), four hours, UTC = 100
aP2 = aP2 mRNA expression in adipocytes (real-time PCR); type: cell-based, human; conditions: differentiating adipocytes transfected with oligomeric compound; Table 75
Glut4 = Glut4 mRNA expression in adipocytes (real-time PCR); type: cell-based, human; conditions: differentiating adipocytes transfected with oligomeric compound; Table 75
PEPCK-c = PEPCK-c mRNA expression in HepG2 cells; type: cell-based, human; conditions: for PEPCKc mRNA expression: Experiment 2, insulin treated: HepG2 cells transfected with oligomeric compound, 1 nM insulin for four hours, UTC + 1 nM insulin = 100; for PEPCKc mRNA: HepG2 cells, Experiment 1, basal (no insulin), four hours, UTC = 100
HuVECs = assay: Endothelial tube formation assay in HuVECs; conditions: 75 nM oligomeric compound, Table 59
HSL = HSL mRNA expression in adipocytes (real-time PCR); type: cell-based, human; conditions: differentiating adipocytes transfected with oligomeric compound; Table 75
PPARγ = PPARγ mRNA expression in adipocytes (real-time PCR); type: cell-based, human; conditions: differentiating adipocytes transfected with oligomeric compound; Table 75
IGFBP-1 = IGFBP-1 mRNA expression in HepG2 cells; type: cell-based, human; conditions: for IGFBP1 mRNA expression: Experiment 2, insulin treated: HepG2 cells transfected with oligomeric compound, 1 nM insulin for four hours, UTC + 1 nM insulin = 100; for IGFBP1 mRNA: HepG2 cells, Experiment 1, basal (no insulin), four hours, UTC = 100

Row | Substance | Follistatin mRNA expression (follistatin) | Follistatin mRNA (follistatin) | aP2 mRNA (aP2) | GLUT4 mRNA (Glut4) | PEPCKc mRNA expression (PEPCK-c) | PEPCKc mRNA (PEPCK-c) | % Activity Relative to UTC (tube formation) (HuVECs) [%] | HSL mRNA (HSL) | PPAR gamma mRNA (PPARγ) | IGFBP1 mRNA expression (IGFBP-1) | IGFBP1 mRNA (IGFBP-1)
1 | 327963 (antisense eA*eA*e[5mC]*e[5mC]*eT*eA*eT*e[5mC]*e[5mC]*eT*eG*eA*eA*eT*eT*eA*e[5mC]*eT*eT*eG*eA*eA) [compound 327963] | 95 | 101 | 75 percentage of untreated control (UTC) | 91 percentage of untreated control (UTC) | 94 | 92 | 93.3 | 89 percentage of untreated control (UTC) | 91 percentage of untreated control (UTC) | 111 | 108
2 | 327964 (antisense e[5mC]*e[5mC]*eA*eA*eG*eT*eT*e[5mC]*eT*eG*eT*e[5mC]*eA*eT*eG*e[5mC]*eA*e[5mC]*eT*eG*eA) [compound 327964] | 114 | 97 | 96 percentage of untreated control (UTC) | 114 percentage of untreated control (UTC) | 122 | 74 | 86.7 | 102 percentage of untreated control (UTC) | 93 percentage of untreated control (UTC) | 121 | 100
3 | 327965 (antisense eA*eT*e[5mC]*eA*e[5mC]*eA*eT*eA*eG*eG*eA*eA*eT*eA*eA*eA*eA*eA*eG*e[5mC]*e[5mC]*eA*eT*eA) [compound 327965] | 79 | 95 | 67 percentage of untreated control (UTC) | 88 percentage of untreated control (UTC) | 64 | 63 | 100.0 | 84 percentage of untreated control (UTC) | 91 percentage of untreated control (UTC) | 105 | 106
